Source: patent publication US20030213746A1, “Neurosteroids as markers for alzheimer's disease” (priority 2003, published 2003)

What was measured:
MGM-1 cells [1] = test: ROS measurement by 2,7-DCF fluorescence; type: cell-based, human
Experimental: β-Amyloid Regulation of the Alternative Pathway: MGM-1 cells were plated on 96 well (˜5,000 cells/well, for ROS measurements) or 24 well (˜15,000 cells/well, for D measurements) plates (Corning Costar, Acton, Mass.). At the same time, 1 mg Ab (Ab(1-42), AnaSpec Inc., San Jose, Calif.) was dissolved in 0.5 ml serum-free media and incubated at 4 C. for aggregation. 24 hours later, cells were incubated in DMEM with 10% fetal bovine serum and […] and 10 mM Vitamin E (Sigma, St. Louis, Mo.). Control samples were incubated in DMEM with 10% FBS. Cells were incubated at 37 C. and 6% CO2 for at least 12 hours and processed for ROS generation (see below) or D synthesis as described above for the alternative experiments.
(§1) Treatment media was removed and the cells were washed with PBS. The fluorescent probe 2,7-dichlorofluorescin diacetate (2,7-DCF, Molecular Probes, Inc., Eugene, Oreg.) was used to measure levels of oxidative stress (48). Cells were incubated with […] 2,7-DCF, fluorescence was measured at 485 nm/535 nm using the Victor^2 Multilabel Counter (EG&G Wallac, Gaithersburg, Md.) and values of cellular fluorescence were obtained.

[2] = tested on: brain samples from AD and Control Patients; test: FeSO4 treatment of brain homogenates, P and D by RIA after HPLC; parameters: species or system human
Experimental: (§2) Tissue Samples: For brain samples from Alzheimer's patients and control patients, samples were treated as previously described (17). In brief, aliquots of homogenates were incubated with a final concentration of 30 mM (brain) or 10 mM (serum and CSF) FeSO4 at 37° C. for 2 hours. After 2 hours, samples were extracted and purified as described for the endogenous levels, and assayed by specific radioimmunoassay.
(§3) RIA using antibodies specific for each steroid (ICN Pharmaceuticals, Costa Mesa, Calif. Mesa) was used to measure P, progesterone and D levels. The data were analyzed using the IBM-PC RIA Data Reduction Program (version 4.1) from Jaffe and Associates (Silver Spring, Md.). Levels of β-amyloid species in AD and control brain samples were analyzed using 4G8 (Senetex PLC, Napa, Calif.), a monoclonal antibody to β-amyloid peptide that recognizes amino acids 17-24. Samples in 0.25 M sucrose buffer were run on 4-20% precast gradient gels (Novex, San Diego, Calif.). Samples were transferred to nitrocellulose membranes and incubated in primary antibody for 1 hour at room temperature at a dilution of 1:2000. Membranes were incubated in secondary antibody (1:1000) for 1-1.5 hours at room temperature and blots were visualized using ECL reagents (Amersham Pharmacia Biotech, Pisquataway, N.J.). Blots were exposed to X-OMAT film.

[3] = tested on: serum from AD and control patients; test: FeSO4 treatment of serum, DHEA by RIA; parameters: species or system human
Experimental: as §2
Serum and CSF Levels of DHEA: Serum was obtained from 11 patients, 5 with AD and 6 age-matched controls. Serum samples were split and treated with and without 10 mM FeSO4. Serum and CSF samples were extracted as described for the brain tissue samples, and purified by HPLC. DHEA levels were measured by specific radioimmunoassay.

NHA cells [4] = test: ROS measurement by 2,7-DCF fluorescence; type: cell-based, human; conditions: all concentrations of FeSO4 tested
Experimental: as §1

NHA cells [5] = test: Alternative pathway D synthesis; type: cell-based, human; conditions: FeSO4, two hours, only seen at the highest dose
Experimental: (§4) Alternative Pathway: To determine the amount of D synthesized by the alternative pathway cells were treated as previously described (15). In brief, cells were washed and oligodendrocytes and astrocytes were incubated with increasing concentrations of FeSO4 in serum free media, with and without SU 10603 (10 mM); neurons were incubated in serum free media containing 5 mM P plus FeSO4, with and without 10 mM SU 10603. After two hours, cells and media were homogenized and extracted as described above. Extracts were run on C18 TLC plates (Whatman, Clifton, N.J.) with a mobile phase of 95% methanol (v/v); radiolabeled standards for P, progesterone, and D were run on each plate, and appropriate steroid fractions were collected for each sample. TLC fractions were extracted with 2 ml diethyl ether (Fluka, New York) and evaporated. TLC extracts were assayed by specific radioimmunoassay (RIA). In separate experiments, steroids eluted from TLC were further identified by HPLC, RIA and Gas Chromatography-Mass Spectrometry (data not shown).
as §3

MGM-1 cells [6] = test: Alternative pathway D synthesis; type: cell-based, human; conditions: increasing concentrations of FeSO4, two hours
Experimental: as §4, §3

hNT-PF cells = test: Alternative pathway D synthesis; type: cell-based, human
Experimental: as §4, §3

KG-1-C cells = test: Alternative pathway D synthesis; type: cell-based, human; conditions: increasing concentrations of FeSO4, two hours
Experimental: as §4, §3

MGM-3 cells = test: Alternative pathway D synthesis; type: cell-based, human; conditions: increasing concentrations of FeSO4, two hours
Experimental: as §4, §3

[7] = tested on: oligodendrocytes or astrocytes; test: D production after addition of P; type: cell-based, human; conditions: addition of 5 μM P, data not shown
human brain cells = test: D formation with SU 10603; type: cell-based; conditions: all human brain cells examined
Experimental: as §4

KG-1-C and MGM-3 cells = test: De novo steroid synthesis from 3H-mevalonactone; type: cell-based, human; conditions: 5 mM SU 10603, KG-1-C and MGM-3 cells, radiolabeled D
Experimental: De Novo Steroid Synthesis: All steroid synthesis experiments were performed with the cells at 60-80% confluency. In order to determine the ability of the cells to synthesize steroids de novo, cells were incubated for two hours at 37 C. and 6% CO2, with specific steroidogenic enzyme inhibitors as previously described (50). In brief, endogenous cholesterol synthesis was blocked by incubating cells with 20 mM Mevastatin in serum-free media (Sigma, St. Louis, Mo.) for 1 hour. 10 mM Trilostane and 5 mM SU 10603 were then added. After 30 minutes, […] ^3H-mevalonactone (33 Ci/mmol, DuPont NEN, Boston, Mass.) and 10 mM cold mevalonactone (Sigma, St. Louis, Mo.) were added. Thirty minutes later, media and cells were combined and homogenized on ice for 20 sec. Homogenates were extracted twice with 4 ml of ether:ethyl acetate (1:1, v/v, Fluka, New York, and EM Science, Gibbstown, N.J.) and evaporated. Extracts were reconstituted in 100% methanol and separated on a Beckman System Gold HPLC system, using a 126NM Solvent Module, 166NM Detector and a Beckman ultrasphere XL 3-mm Spherical 80 A pore column (Beckman, Fullerton, Calif.), eluted on a methanol gradient. Fractions were collected each minute and counted by liquid scintillation spectrometry (EG&G Wallac, Gaithersburg, Md.) to determine production of radiolabeled steroids. […]

cell lines used = test: P levels with SU 10603 alone; type: cell-based, human; conditions: any of the cell lines used, data not shown
MGM-1 cells [8] = test: β-Amyloid regulation of the alternative pathway, D levels; type: cell-based, human
Experimental: as §4, with “In separate experiments, steroids eluted from TLC were further identified by HPLC, RIA and Gas Chromatography-Mass Spectrometry (data not shown).” left out
RIA using antibodies specific for each steroid (ICN Pharmaceuticals, Costa Mesa, Calif. Mesa) was used to measure P, progesterone and D levels. The data were analyzed using the IBM-PC RIA Data Reduction Program (version 4.1) from Jaffe and Associates (Silver Spring, Md.). Levels of β-amyloid species in AD and control brain samples were analyzed using 4G8 (Senetex PLC, Napa, Calif.), a monoclonal antibody to β-amyloid peptide that recognizes amino acids 17-24. […]

Human glioma cells = test: Vitamin E treatment, ROS and D levels; type: cell-based; conditions: 10 mM Vitamin E, at least twelve hours, data not shown
Experimental: as §4, with “In separate experiments, steroids eluted from TLC were further identified by HPLC, RIA and Gas Chromatography-Mass Spectrometry (data not shown).” left out
Treatment media was removed and the cells were washed with PBS. […] Cells were incubated with […] 2,7-DCF, fluorescence was measured at 485 nm/535 nm using the Victor^2 Multilabel Counter (EG&G Wallac, Gaithersburg, Md.) and values of cellular fluorescence were obtained.
We hypothesized that high endogenous levels of ROS might be responsible for the de novo D formation in KG-1-C and MGM-3 cells. […] We measured ROS and D levels in these cells as described in the Experimental Procedures. […]

[9] = 30 mM FeSO4, frontal cortex, AD patients
[10] = 30 mM FeSO4, frontal cortex, control patients (C)
[11] = 30 mM FeSO4, hippocampus, AD patients
[12] = 30 mM FeSO4, hippocampus, control patients (C)
[13] = 30 mM FeSO4, hypothalamus, AD patients
[14] = 30 mM FeSO4, hypothalamus, control patients (C)

O=S(=O)([O-])[O-].[Fe+2] [FeSO4]
ROS levels above untreated cells (MGM-1 cells [1]; all concentrations of FeSO4 tested, MGM-1): significant increase
D (pg/mg protein) [2, 9]: 219.3 pg/mg protein
P (pg/mg protein) [2, 9]: 10485.5 pg/mg protein
D (pg/mg protein) [2, 10]: 70.0 pg/mg protein
P (pg/mg protein) [2, 10]: 7339.8 pg/mg protein
D (pg/mg protein) [2, 11]: 241.7 pg/mg protein
P (pg/mg protein) [2, 11]: 11584.0 pg/mg protein
D (pg/mg protein) [2, 12]: 128.3 pg/mg protein
P (pg/mg protein) [2, 12]: 8529.3 pg/mg protein
D (pg/mg protein) [2, 13]: 180.8 pg/mg protein
P (pg/mg protein) [2, 13]: 6640.3 pg/mg protein
D (pg/mg protein) [2, 14]: 61.4 pg/mg protein
P (pg/mg protein) [2, 14]: 7707.2 pg/mg protein
effect on D levels ([3]; 10 mM FeSO4, AD serum): little effect
increase in D levels ([3]; 10 mM FeSO4, control serum): 1.5-3 fold
ROS levels above untreated cells (NHA cells [4]): significant increase
effect on D formation (NHA cells [5]): significant effect
D synthesis via the alternative pathway (MGM-1 cells [6]): has the ability to make D via the alternative pathway
effect on D levels (hNT-PF cells; increasing concentrations of FeSO4 plus 5 mM P): not affected
effect on D levels (KG-1-C cells): did not significantly affect
effect on D levels (MGM-3 cells): did not significantly affect

CC(=O)[C@H]1CC[C@H]2[C@@H]3CC=C4C[C@@H](O)CC[C@]4(C)[C@H]3CC[C@]12C [P, pregnenolone]
D production [7]: did not result in increased D production

O=C1c2cc(Cl)ccc2CCC1c1cccnc1 (centres unmarked) [SU 10603]
inhibition of D formation (human brain cells): did not inhibit
blocking endogenous D production (KG-1-C and MGM-3 cells): not effective
effect on P levels (cell lines used): no effect
effect on D levels (hNT-PF cells; SU 10603 treatment): not affected

Aβ: β-amyloid peptide Ab(1-42), AnaSpec Inc., aggregated; a component of Alzheimer's disease plaques
2,7-DCF fluorescence (ROS) versus control levels (MGM-1 cells [1]; 50 mM Aβ, MGM-1, p<0.01): significant increase
D levels versus control (MGM-1 cells [8]; 50 mM Aβ, MGM-1, p<0.01): increased D levels significantly over control

Vitamin E
effect on Aβ-induced increase in ROS (MGM-1 cells [1]; 10 mM Vitamin E with 50 mM Aβ, MGM-1, p=0.054): partially blocked
effect on Aβ-induced increase in D levels (MGM-1 cells [8]; 10 mM Vitamin E with 50 mM Aβ, MGM-1, p<0.05 versus Ab): blocked
D levels compared to untreated cells (Human glioma cells): lowered
ROS levels compared to untreated cells (Human glioma cells): lowered
